The results in this text go back to US8987286B2, “Substituted pyrimido[1,2-b]indazoles and their use as modulators of the Pi3K/Akt pathway” (Bayer Intellectual Property GmbH, priority 2010, dated 2015).

Molecules are shown by their SMILES. Structures can show the parent of a compound that is named as a salt.

The test deals with Akt1 (Homo sapiens (Human), UniProt P31749). Description: Akt1 kinase assay (Akt1 TR-FRET assay). Type of test: biochemical. The conditions noted are these: His-tagged human recombinant full-length Akt1, 10 μM ATP, 1 μM peptide substrate. The source says: Biological Assay 1.0: Akt1 Kinase Assay
Chain of Akt1 (P31749 whole entry): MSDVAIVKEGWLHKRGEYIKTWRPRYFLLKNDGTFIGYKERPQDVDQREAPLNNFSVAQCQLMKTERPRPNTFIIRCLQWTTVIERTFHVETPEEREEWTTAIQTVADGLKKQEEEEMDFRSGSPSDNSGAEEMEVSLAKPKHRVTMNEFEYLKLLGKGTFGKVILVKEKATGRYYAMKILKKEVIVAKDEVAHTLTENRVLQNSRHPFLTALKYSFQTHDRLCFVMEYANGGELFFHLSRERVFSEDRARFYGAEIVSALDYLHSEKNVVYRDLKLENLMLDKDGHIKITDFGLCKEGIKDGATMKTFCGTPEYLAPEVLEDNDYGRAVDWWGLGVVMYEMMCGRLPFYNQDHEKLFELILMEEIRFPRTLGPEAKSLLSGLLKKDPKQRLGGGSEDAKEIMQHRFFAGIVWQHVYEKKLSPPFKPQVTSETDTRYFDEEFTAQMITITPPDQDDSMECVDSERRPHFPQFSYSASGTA
Akt1 inhibitory activity of compounds of the present invention was quantified employing the Akt1 TR-FRET assay as described in the following paragraphs.
His-tagged human recombinant kinase full-length Akt1 expressed in insect cells was purchased form Invitrogen (part number PV 3599). As substrate for the kinase reaction the biotinylated peptide biotin-Ahx-KKLNRTLSFAEPG (C-terminus in amide form) was used which can be purchased e.g. from the company Biosynthan GmbH (Berlin-Buch, Germany).
For the assay 50 nl of a 100 fold concentrated solution of the test compound in DMSO was pipetted into a black low volume 384 well microtiter plate (Greiner Bio-One, Frickenhausen, Germany), 2 μl of a solution of Akt1 in assay buffer [50 mM TRIS/HCl pH 7.5, 5 mM MgCl2, 1 mM dithiothreitol, 0.02% (v/v) Triton X-100 (Sigma)] were added and the mixture was incubated for 15 min at 22° C. to allow pre-binding of the test compounds to the enzyme before the start of the kinase reaction. Then the kinase reaction was started by the addition of 3 μl of a solution of adenosine-tri-phosphate (ATP, 16.7 μM=>final conc. in the 5 μl assay volume is 10 μM) and substrate (1.67 μM=>final conc. in the 5 μl assay volume is 1 μM) in assay buffer and the resulting mixture was incubated for a reaction time of 60 min at 22° C. The concentration of Akt1 in the assay was adjusted depending of the activity of the enzyme lot and was chosen appropriate to have the assay in the linear range, typical enzyme concentrations were in the range of about 0.05 ng/μl (final conc. in the 5 μl assay volume).
The reaction was stopped by the addition of 5 μl of a solution of HTRF detection reagents (200 nM streptavidine-XL665 [Cisbio] and 1.5 nM anti-phosho-Serine antibody [Millipore, cat. #35-001] and 0.75 nM LANCE Eu-W 1024 labeled anti-mouse IgG antibody [Perkin Elmer]) in an aqueous EDTA-solution (100 mM EDTA, 0.1% (w/v) bovine serum albumin in 50 mM HEPES/NaOH pH 7.5).
The resulting mixture was incubated 1 h at 22° C. to allow the binding of the biotinylated phosphorylated peptide to the streptavidine-XL665 and the antibodies. Subsequently the amount of phosphorylated substrate was evaluated by measurement of the resonance energy transfer from the anti-mouse-IgG-Eu-Chelate to the streptavidine-XL665. Therefore, the fluorescence emissions at 620 nm and 665 nm after excitation at 350 nm was measured in a HTRF reader, e.g. a Rubystar (BMG Labtechnologies, Offenburg, Germany) or a Viewlux (Perkin-Elmer). The ratio of the emissions at 665 nm and at […] was taken as the measure for the amount of phosphorylated substrate. The data were normalised (enzyme reaction without inhibitor=0% inhibition, all other assay components but no enzyme=100% inhibition).
(In TR-FRET formats the signal depends on donor and acceptor labels being close together.)
With `COC(=O)/C=C/c1ccc2nn3cc(-c4ccccc4)c(-c4ccc(C5(N)CCC5)cc4)nc3c2c1` [Example 15.4, (E)-3-{2-[4-(1-Aminocyclobutyl)phenyl]-3-phenylpyrimido[1,2-b]indazol-9-yl}acrylic acid methyl ester], the IC50 (in general, the concentration that gives 50% inhibition) was 10 nM.

Consider `N#Cc1cccc(-c2ccc3c(c2)nn2cc(-c4ccccc4)c(-c4ccc(C5(N)CCC5)cc4)nc32)c1` [Example 4, 3-{2-[4-(1-Aminocyclobutyl)phenyl]-3-phenylpyrimido[1,2-b]indazol-8-yl}-benzonitrile], for which the IC50 was 140 nM.

On to `CS(=O)(=O)c1cccc(-c2cccc3c2nn2cc(-c4ccccc4)c(-c4ccc(C5(N)CCC5)cc4)nc32)c1` [Example 8.4, 1-{4-[7-(3-Mesylphenyl)-3-phenylpyrimido[1,2-b]indazol-2-yl]-phenyl}cyclobutylamine], for which the IC50 is 17000 nM.

For the compound `NC1(c2ccc(-c3nc4c5cc(-c6cccc(CO)c6)ccc5nn4cc3-c3ccccc3)cc2)CCC1` [Example 6.3, 3-{2-[4-(1-Aminocyclobutyl)phenyl]-3-phenylpyrimido[1,2-b]indazol-9-yl}benzyl alcohol formiate], the IC50 came to 16 nM. Take `Cc1cc(-c2ccc3c(c2)nn2cc(-c4ccccc4)c(-c4ccc(C5(N)CCC5)cc4)nc32)[nH]n1` [Example 15.1, 1-{4-[8-(3-Methyl-1H-pyrazol-5-yl)-3-phenylpyrimido[1,2-b]indazol-2-yl]phenyl}cyclobutylamine]: the IC50 turned out to be 10 nM. To `CS(=O)(=O)c1ccc(-c2ccc3c(c2)nn2cc(-c4ccccc4)c(-c4ccc(C5(N)CCC5)cc4)nc32)cc1` [Example 4.1, 1-{4-[8-(4-Mesylphenyl)-3-phenylpyrimido[1,2-b]indazol-2-yl]-phenyl}cyclobutylamine] belongs 59 nM. For the compound `NC1(c2ccc(-c3nc4c5cc(-c6cn[nH]c6)ccc5nn4cc3-c3ccccc3)cc2)CCC1` [Example 6.7, 1-{4-[3-Phenyl-9-(1H-pyrazol-4-yl)pyrimido[1,2-b]indazol-2-yl]phenyl}-cyclobutylamine], the IC50 was found to be 19 nM. To `Cc1cc(-c2ccc3nn4cc(-c5ccccc5)c(-c5ccc(C6(N)CCC6)cc5)nc4c3c2)[nH]n1` [Example 15.3, 1-{4-[9-(3-Methyl-1H-pyrazol-5-yl)-3-phenylpyrimido[1,2-b]indazol-2-yl]phenyl}cyclobutylamine] belongs 6 nM; to `CNc1c(-c2ccccc2)c(-c2ccc(C3(N)CCC3)cc2)nc2c3cc(F)ccc3nn12` [Example 3, 2-[4-(1-Aminocyclobutyl)phenyl]-9-fluoro-N-methyl-3-phenylpyrimido[1,2-b]indazol-4-amine], 2630 nM. The result for `NC1(c2ccc(-c3nc4c5cccc(-c6cn[nH]c6)c5nn4cc3-c3ccccc3)cc2)CCC1` [Example 8.5, 1-{4-[3-Phenyl-7-(1H-pyrazol-4-yl)pyrimido[1,2-b]indazol-2-yl]-phenyl}cyclobutylamine×0.5 formiate] reads 160 nM; that for `NC1(c2ccc(-c3nc4c5ccc(-c6ccc(O)nc6)cc5nn4cc3-c3ccccc3)cc2)CCC1` [Example 4.12, 5-{2-[4-(1-Aminocyclobutyl)phenyl]3-phenylpyrimido[1,2-b]indazol-8-yl}pyridin-2-ol], 14 nM; that for `COC(=O)c1cccc(-c2ccc3nn4cc(-c5ccccc5)c(-c5ccc(C6(N)CCC6)cc5)nc4c3c2)c1` [Example 5.2, 3-{2-[4-(1-Aminocyclobutyl)phenyl]-3-phenylpyrimido[1,2-b]indazol-9-yl}benzoic acid methyl ester], 130 nM.

As to `N#Cc1ccc(-c2ccc3nn4cc(-c5ccccc5)c(-c5ccc(C6(N)CCC6)cc5)nc4c3c2)cc1` [Example 6.2, 4-{2-[4-(1-Aminocyclobutyl)phenyl]-3-phenylpyrimido[1,2-b]indazol-9-yl}benzonitrile formiate], the IC50 amounted to 97 nM.

For `NC1(c2ccc(-c3nc4c5cc(Br)ccc5nn4cc3-c3ccccc3)cc2)CCC1` [Example 6.1, 1-[4-(9-Bromo-3-phenylpyrimido[1,2-b]indazol-2-yl)phenyl]cyclobutylamine], the IC50 was 41 nM.

Regarding `NC(=O)/C=C/c1cccc2c1nn1cc(-c3ccccc3)c(-c3ccc(C4(N)CCC4)cc3)nc21` [Example 14, (E)-3-{2-[4-(1-Aminocyclobutyl)phenyl]-3-phenylpyrimido[1,2-b]indazol-7-yl}-acrylamide], the IC50 is 580 nM. To `NC1(c2ccc(-c3nc4c5cc(-c6ccc(F)c(CO)c6)ccc5nn4cc3-c3ccccc3)cc2)CCC1` [Example 6.6, 5-{2-[4-(1-Aminocyclobutyl)phenyl]-3-phenylpyrimido[1,2-b]indazol-9-yl}-2-fluorobenzyl alcohol] belongs 10 nM; to `NC1(c2ccc(-c3nc4c5ccc(-c6ccc(F)c(CO)c6)cc5nn4cc3-c3ccccc3)cc2)CCC1` [Example 4.4, 5-{2-[4-(1-Aminocyclobutyl)phenyl]-3-phenylpyrimido[1,2-b]indazol-8-yl}-2-fluorobenzyl alcohol], 43 nM; to `COC(=O)c1ccc2c(c1)nn1cc(-c3ccccc3)c(-c3ccc(C4(N)CCC4)cc3)nc21` [Example 4.8, 2-[4-(1-Aminocyclobutyl)phenyl]-3-phenylpyrimido[1,2-b]indazole-8-carboxylic acid methyl ester], 111 nM. The result for `NC1(c2ccc(-c3nc4c5ccc(-c6ccn[nH]6)cc5nn4cc3-c3ccccc3)cc2)CCC1` [Example 15.0, 1-{4-[3-Phenyl-8-(1H-pyrazol-5-yl)pyrimido[1,2-b]indazol-2-yl]phenyl}-cyclobutylamine] reads 15 nM; that for `NC1(c2ccc(-c3nc4c5cc(F)ccc5nn4c(NC4CC4)c3-c3ccccc3)cc2)CCC1` [Example 2, 2-[4-(1-Aminocyclobutyl)phenyl]-N-cyclopropyl-9-fluoro-3-phenylpyrimido[1,2-b]indazol-4-amine], 528 nM.

With `NC1(c2ccc(-c3nc4c5ccc(-c6cn[nH]c6)cc5nn4cc3-c3ccccc3)cc2)CCC1` [Example 4.11, 1-{4-[3-Phenyl-8-(1H-pyrazol-4-yl)pyrimido[1,2-b]indazol-2-yl]-phenyl}cyclobutylamine], the IC50 turned out to be 17 nM. To `NC1(c2ccc(-c3nc4c5cccc(-c6ccc(F)cc6)c5nn4cc3-c3ccccc3)cc2)CCC1` [Example 8.2, 1-{4-[7-(4-Fluorophenyl)-3-phenylpyrimido[1,2-b]indazol-2-yl]-phenyl}cyclobutylamine] belongs 5600 nM. `NC1(c2ccc(-c3nc4c5cc(-c6ccn[nH]6)ccc5nn4cc3-c3ccccc3)cc2)CCC1` [Example 15.2, 1-{4-[3-Phenyl-9-(1H-pyrazol-5-yl)pyrimido[1,2-b]indazol-2-yl]-phenyl}cyclobutylamine]: the IC50 was 10 nM. Consider `NC1(c2ccc(-c3nc4c5ccc(-c6ccc(F)cc6)cc5nn4cc3-c3ccccc3)cc2)CCC1` [Example 4.2, 1-{4-[8-(4-Fluorophenyl)-3-phenylpyrimido[1,2-b]indazol-2-yl]-phenyl}cyclobutylamine], for which the IC50 is 229 nM. To `COC(=O)c1cccc2c1nn1cc(-c3ccccc3)c(-c3ccc(C4(N)CCC4)cc3)nc21` [Example 10, 2-[4-(1-Aminocyclobutyl)phenyl]-3-phenylpyrimido[1,2-b]indazole-7-carboxylic acid methyl ester formiate] belongs 740 nM; to `NC1(c2ccc(-c3nc4c5cc(-c6ccc(CO)cc6)ccc5nn4cc3-c3ccccc3)cc2)CCC1` [Example 6.4, 4-{2-[4-(1-Aminocyclobutyl)phenyl]-3-phenylpyrimido[1,2-b]indazol-9-yl}benzyl alcohol formiate], 18 nM. To `NC1(c2ccc(-c3nc4c5cccc(Br)c5nn4cc3-c3ccccc3)cc2)CCC1` [Example 8.1, 1-[4-(7-Bromo-3-phenylpyrimido[1,2-b]indazol-2-yl)phenyl]cyclobutylamine hydrochloride] belongs 170 nM. To `COc1cc(-c2ccc3c(c2)nn2cc(-c4ccccc4)c(-c4ccc(C5(N)CCC5)cc4)nc32)ccc1F` [Example 4.6, 1-{4-[8-(4-Fluoro-3-methoxyphenyl)-3-phenylpyrimido[1,2-b]indazol-2-yl]phenyl}cyclobutylamine] belongs 458 nM.
